The structures appear in SMILES notation.

What all share (type): in vivo
Experiment [1] relates to Escherichia coli (ATCC No 25922 F-50). Briefly: Experimental sepsis model in mice, survival on the 7th day. As to conditions: E. coli 8×10^8 CFU/mouse. An excerpt: (§1) To determine therapeutic efficiency of fosfamicin and their pharmaceutical compositions including BHSiO2, we used experimental sepsis models and a statistical processing methos of the received data (χ^2) according to [29, 30].
(§2) Microorganisms: Staphylococcus aureus (ATCC No 25923 F-49), Escherichia coli (ATCC No 25922 F-50), Pseudomonas aeruginosa (ATCC N227853 F-51).
(§3) Animals: for the experiments we used hybrid mice (CBA×C57Black/6)CBF1 according to the “Regulations for test animals use” (USSR Ministry of health order supplement No 755 from 12.08. 1977).
(§4) The mice have been injected 0.8 ml of Pseudomonas aeruginosa daily culture suspension with a dosage 5×10^8 CFU/mouse or Staphylococcus aureus daily culture suspension with a dosage 10^10 CFU/mouse or Escherichia coli daily culture suspension with a dosage 8×10^8 CFU/mouse. The control group has been injected with 0.8 ml of normal saline solution (0.9% sodium chloride solution). In a day after being infected the test mice have been daily (during 3 days) intravenous injected with 100 mg/kg of antibiotics or different pharmaceutical compositions (antibiotic/BHSiO2) watered down with 0.25 ml of normal saline solution. The control group of mice has been injected using the same scheme with normal saline solution […].
(§5) Antimicrobial therapy efficiency has been estimated basing on the q-ty of the living mice on the 7th day of the experiment.
(§6) The obtained data stated in Table No 2 reflect the results of 3 independent experiments conducted for each test group.

Experiment [2] has as its system Pseudomonas aeruginosa (ATCC N227853 F-51). The description is as above. As to conditions: P. aeruginosa 5×10^8 CFU/mouse.
From the text: as §1, §2, §3, §4, §5, §6

Experiment [3] relates to Staphylococcus aureus (ATCC No 25923 F-49). The experiment is described as above. To be noted: S. aureus 10^10 CFU/mouse.
From the text: as §1, §2, §3, §4, §5, §6

The subject of experiment [4] is Pseudomonas aeruginosa. Briefly: Anti-inflammatory action: peripheral blood leukocytes of mice surviving to day 7 after sepsis induction. As to conditions: mice infected with Pseudomonas aeruginosa surviving to day 7, median, low and high quartiles. The procedure: (§7) The mice have been injected 0.8 ml of Pseudomonas aeruginosa daily culture suspension with a dosage 5×10^8 CFU/mouse or Staphylococcus aureus daily culture suspension with a dosage 10^10 CFU/mouse or Escherichia coli daily culture suspension with a dosage 8×10^8 CFU/mouse. […] In a day after being infected the test mice have been daily (during 3 days) intravenous injected with 100 mg/kg of antibiotics or different pharmaceutical compositions (antibiotic/BHSiO2) watered down with 0.25 ml of normal saline solution.
(§8) It is known that in case of sepsis the quantity of peripheral blood leucocytes can determine the activity of the inflammatory process.
(§9) We have studied the leukocytes quantity of the mice that have survived until the day 7 after sepsis induction, according to the method described above.

In experiment [5] the test system is Staphylococcus aureus. The experiment is described as above. To be noted: mice infected with Staphylococcus aureus surviving to day 7, median, low and high quartiles. The procedure:
as §7, §8, §9

[6] abbreviates: 100 mg/kg intravenous daily for 3 days.
[7] abbreviates: 100 mg/kg intravenous daily for 3 days from a day after infection.

`C[C@@H]1O[C@@H]1P(=O)(O)O` [Fosfomycin, fosfomycin]: the “Mice survival on the 7th day, survived/infected animals (absolute values)” value in experiment [1] (setting [6]) is on record as “(14/30)”; in experiment [2] (setting [6]), “(10/31)”; in experiment [3] (setting [6]), “(12/30)”. Further, the “Mice survival rate on the 7th day of infection” value in experiment [1] (setting [7]) was determined as 46.6%; in experiment [2] (setting [7]), 32.2%; in experiment [3] (setting [7]) it was 40%. The “Leukocytes quantity Me(LQ-HQ)” value is on record as 17.13 (16.0-18.63) × 10^9/l in experiment [4] and 17.38 (15.5-21.5) × 10^9/l in experiment [5].

These data come from US20130164336A1, “ANTIMICROBIAL AND ANTI-INFLAMMATORY ACTION PHARMACEUTICAL COMPOSITION FOR PARENTERAL ADMINISTRATION AND ITS PRODUCTION PROCESS” (priority 2010, published 2013).
